Experimental data from ChEMBL document CHEMBL4334493, “14- and 15-membered lactone macrolides and their analogues and hybrids: structure, molecular mechanism of action and biological activity” (Eur J Med Chem, 2019).
Values after ≈ are worked out from the molar mass of the structure shown.

Key:
[1] = tested on: Escherichia coli; test: Antibacterial activity against Escherichia coli ATCC 25922 by NCCLS protocol based broth microdilution method; format: functional
[2] = tested on: Klebsiella pneumoniae; test: Antibacterial activity against Klebsiella pneumoniae 13883 by NCCLS protocol based broth microdilution method; format: functional
[3] = tested on: Enterococcus faecalis; test: Antibacterial activity against Enterococcus faecalis ATCC 29212 by NCCLS protocol based broth microdilution method; format: functional
[4] = tested on: Pseudomonas aeruginosa; test: Antibacterial activity against Pseudomonas aeruginosa 27853 by NCCLS protocol based broth microdilution method; format: functional
[5] = Antibacterial activity against Salmonella choleraesuis 14028 by NCCLS protocol based broth microdilution method; format: functional, Salmonella enterica subsp. enterica serovar Choleraesuis; conditions: Salmonella enterica
[6] = tested on: Staphylococcus aureus; test: Antibacterial activity against Staphylococcus aureus ATCC 25923 by NCCLS protocol based broth microdilution method; format: functional
[7] = tested on: Staphylococcus epidermidis; test: Antibacterial activity against Staphylococcus epidermidis ATCC 12228 by NCCLS protocol based broth microdilution method; format: functional
[8] = tested on: Streptococcus pneumoniae; test: Antibacterial activity against Streptococcus pneumoniae 49619 by NCCLS protocol based broth microdilution method; format: functional
[9] = tested on: Haemophilus influenzae; test: Antibacterial activity against Haemophilus influenzae 49247; format: functional
[10] = tested on: Haemophilus influenzae; test: Antibacterial activity against Haemophilus influenzae 33929; format: functional
[11] = tested on: Escherichia coli; test: Antibacterial activity against Escherichia coli DK A2058G; format: functional
[12] = tested on: Escherichia coli; test: Antibacterial activity against Escherichia coli DK pKK 3535; format: functional
[13] = tested on: Streptococcus pneumoniae; test: Antibacterial activity against Streptococcus pneumoniae 655 mefA; format: functional
[14] = tested on: Streptococcus pneumoniae; test: Antibacterial activity against Streptococcus pneumoniae ATCC 49619; format: functional
[15] = tested on: Klebsiella pneumoniae; test: Antibacterial activity against Klebsiella pneumoniae ATCC 10031; format: functional
[16] = tested on: Staphylococcus aureus; test: Antibacterial activity against Staphylococcus aureus BAA-977 expressing iermA; format: functional
[17] = tested on: Staphylococcus aureus; test: Antibacterial activity against methicillin resistant Staphylococcus aureus NRS384 expressing MsrA; format: functional
[18] = tested on: Pseudomonas aeruginosa; test: Antibacterial activity against Pseudomonas aeruginosa ATCC 27853; format: functional
[19] = tested on: Enterococcus faecalis; test: Antibacterial activity against Enterococcus faecalis UN-047 VRE expressing ErmS; format: functional
[20] = tested on: Staphylococcus aureus; test: Antibacterial activity against Staphylococcus aureus ATCC 29213; format: functional
[21] = tested on: Acinetobacter baumannii; test: Antibacterial activity against Acinetobacter baumannii ATCC 19606; format: functional; conditions: ATCC 19606 = CIP 70.34 = JCM 6841
[22] = tested on: Streptococcus pyogenes; test: Antibacterial activity against Streptococcus pyogenes ATCC 19615; format: functional
[23] = tested on: Enterococcus faecalis; test: Antibacterial activity against Enterococcus faecalis ATCC 29212; format: functional
[24] = tested on: Staphylococcus aureus; test: Antibacterial activity against methicillin resistant Staphylococcus aureus MP513 expressing cErmA; format: functional
[25] = tested on: Escherichia coli; test: Antibacterial activity against Escherichia coli ATCC 25922; format: functional
[26] = tested on: Haemophilus influenzae; test: Antibacterial activity against Haemophilus influenzae ATCC 49247; format: functional
[27] = tested on: Streptococcus pneumoniae; test: Antibacterial activity against Streptococcus pneumoniae UNT-042 expressing ErmB/MefA; format: functional
[28] = tested on: Streptococcus pneumoniae; test: Antibacterial activity against Streptococcus pneumoniae ATCC 49619 after 24 hrs by broth microdilution method; format: functional; conditions: ATCC 49619, 24 h
[29] = tested on: Staphylococcus aureus; test: Antibacterial activity against Staphylococcus aureus ATCC 25923 after 24 hrs by broth microdilution method; format: functional; conditions: ATCC 25923, 24 h
[30] = tested on: Histophilus somni; test: Antibacterial activity against Histophilus somni ATCC 700025 after 24 hrs by broth microdilution method; format: functional; conditions: ATCC 700025, 24 h
[31] = tested on: Enterococcus faecium; test: Antibacterial activity against Enterococcus faecium 569 after 24 hrs by broth microdilution method; format: functional; conditions: Enterococcus faecium, 569, 24 h
[32] = tested on: Cutibacterium acnes; test: Antibacterial activity against Propionibacterium acnes ATCC 6919 after 24 hrs by broth microdilution method; format: functional; conditions: ATCC 6919, 24 h
[33] = tested on: Mannheimia haemolytica; test: Antibacterial activity against Mannheimia haemolytica IATCC 33396 after 24 hrs by broth microdilution method; format: functional; conditions: IATCC 33396, 24 h
[34] = tested on: Escherichia coli; test: Antibacterial activity against Escherichia coli ECM1888 after 24 hrs by broth microdilution method; format: functional; conditions: ECM1888, 24 h
[35] = tested on: Streptococcus pyogenes; test: Antibacterial activity against Streptococcus pyogenes ATCC 19615 after 24 hrs by broth microdilution method; format: functional; conditions: ATCC 19615, 24 h
[36] = tested on: Staphylococcus epidermidis; test: Antibacterial activity against Staphylococcus epidermidis ATCC 12228 after 24 hrs by broth microdilution method; format: functional; conditions: ATCC 12228, 24 h
[37] = tested on: Staphylococcus aureus; test: Antibacterial activity against Staphylococcus aureus 10 after 24 hrs by broth microdilution method; format: functional; conditions: Staphylococcus aureus, 10, 24 h
[38] = tested on: Enterococcus faecium; test: Antibacterial activity against Enterococcus faecium 568 after 24 hrs by broth microdilution method; format: functional; conditions: Enterococcus faecium, 568, 24 h
[39] = tested on: Pasteurella multocida; test: Antibacterial activity against Pasteurella multocida IATCC 11039 after 24 hrs by broth microdilution method; format: functional; conditions: IATCC 11039, 24 h
[40] = tested on: Escherichia coli; test: Antibacterial activity against Escherichia coli leuS ANA395 after 24 hrs by broth microdilution method; format: functional; conditions: leuS ANA395, 24 h

## CC[C@H]1OC(=O)[C@H](C)[C@@H](O[C@H]2C[C@@](C)(OC)[C@@H](OC(=O)NC[C@H]3OB(O)c4ccccc43)[C@H](C)O2)[C@H](C)[C@@H](O[C@@H]2O[C@H](C)C[C@H](N(C)C)[C@H]2O)[C@](C)(OC)C[C@@H](C)C(=O)[C@H](C)[C@@H](O)[C@]1(C)O
[1]
  MIC: > 64 µg/mL
[2]
  MIC: > 64 µg/mL
[3]
  MIC: 4 µg/mL (≈ 4.27 µM)
[4]
  MIC: > 64 µg/mL
[5]
  MIC: > 64 µg/mL
[6]
  MIC: 2 µg/mL (≈ 2.13 µM)
[7]
  MIC: 0.5 µg/mL (≈ 0.534 µM)
[8]
  MIC: 0.5 µg/mL (≈ 0.534 µM)

## CC[C@H]1OC(=O)[C@H](C)C(=O)[C@H](C)[C@@H](O[C@@H]2O[C@H](C)C[C@H](N(C)C)[C@H]2O)[C@@]2(C)C[C@@H](C)/C(=N\C(C)=O)[C@H](C)[C@@H](OC/C(=N\OCc3ccc(-c4ccno4)cn3)CO2)[C@]1(C)O
[9]
  MIC: 4 µg/mL (≈ 4.75 µM)
[10]
  MIC: 4 µg/mL (≈ 4.75 µM)

## CC[C@H]1OC(=O)[C@@](C)(F)C(=O)[C@H](C)[C@@H](O[C@@H]2O[C@H](C)C[C@H](N(C)C)[C@H]2O)[C@](C)(OC)C[C@@H](C)C(=O)[C@H](C)[C@H]2N(CCCCn3nncc3-c3cccs3)C(=O)O[C@]12C
[11]
  MIC: 0.004 µg/mL (≈ 0.00478 µM)
[12]
  MIC: 1 µg/mL (≈ 1.2 µM)
[13]
  MIC: 0.5 µg/mL (≈ 0.598 µM)
[14]
  MIC: 1 µg/mL (≈ 1.2 µM)

## CC[C@H]1OC(=O)[C@H](C)C(=O)[C@H](C)[C@@H](O[C@@H]2O[C@H](C)C[C@H](N(C)C)[C@H]2O)[C@](C)(OC)C[C@@H](C)CN[C@H](C)[C@H]2N(CCCCn3cc(-c4cccc(N)c4)nn3)C(=O)O[C@]12C
[15]
  MIC: 2 µg/mL (≈ 2.42 µM)
[16]
  MIC: 0.5 µg/mL (≈ 0.604 µM)
[17]
  MIC: 1 µg/mL (≈ 1.21 µM)
[18]
  MIC: 64 µg/mL (≈ 77.3 µM)
[19]
  MIC: > 64 µg/mL
[20]
  MIC: 0.5 µg/mL (≈ 0.604 µM)
[21]
  MIC: 4 µg/mL (≈ 4.83 µM)
[22]
  MIC: ≤ 0.03 µg/mL
[23]
  MIC: 0.125 µg/mL (≈ 0.151 µM)
[24]
  MIC: > 64 µg/mL
[25]
  MIC: 4 µg/mL (≈ 4.83 µM)
[26]
  MIC: 2 µg/mL (≈ 2.42 µM)
[14]
  MIC: ≤ 0.03 µg/mL
[27]
  MIC: 2 µg/mL (≈ 2.42 µM)

## CC[C@H]1OC(=O)[C@@](C)(F)C(=O)[C@H](C)[C@@H](O[C@@H]2O[C@H](C)C[C@H](N(C)C)[C@H]2O)[C@](C)(OC)C[C@@H](C)C(=O)[C@H](C)[C@H]2N(CCCCn3cc(-c4cccs4)nn3)C(=O)O[C@]12C
[11]
  MIC: 0.004 µg/mL (≈ 0.00478 µM)
[12]
  MIC: 1 µg/mL (≈ 1.2 µM)
[13]
  MIC: 0.5 µg/mL (≈ 0.598 µM)
[14]
  MIC: 1 µg/mL (≈ 1.2 µM)

## CC[C@H]1OC(=O)[C@H](C)[C@@H](O[C@H]2C[C@@](C)(OC)[C@@H](OC(=O)NCCCNC(=O)CCc3cccc4c3B(O)OC4)[C@H](C)O2)[C@H](C)[C@@H](O[C@@H]2O[C@H](C)C[C@H](N(C)C)[C@H]2O)[C@](C)(O)C[C@@H](C)CN(C)[C@H](C)[C@H]2OC(=O)O[C@@]21C
[28]
  MIC: 0.13 µg/mL (≈ 0.122 µM)
[29]
  MIC: 4 µg/mL (≈ 3.76 µM)
[30]
  MIC: 4 µg/mL (≈ 3.76 µM)
[31]
  MIC: 2 µg/mL (≈ 1.88 µM)
[32]
  MIC: ≤ 0.12 µg/mL
[33]
  MIC: 8 µg/mL (≈ 7.53 µM)
[34]
  MIC: 8 µg/mL (≈ 7.53 µM)
[35]
  MIC: 0.25 µg/mL (≈ 0.235 µM)
[36]
  MIC: 8 µg/mL (≈ 7.53 µM)
[37]
  MIC: 0.5 µg/mL (≈ 0.47 µM)
[38]
  MIC: 0.13 µg/mL (≈ 0.122 µM)
[39]
  MIC: 4 µg/mL (≈ 3.76 µM)
[40]
  MIC: 8 µg/mL (≈ 7.53 µM)
